Experimental data from patent US20230355542A1, “DRUG-ELUTING DEVICE WITH GENETIC AND CHEMICAL THERAPEUTICS FOR TREATING OR PREVENTING VASCULAR ACCESS DYSFUNCTIONS” (priority 2022, published 2023).

Tested on: neointima formation in the venous arms of AV fistulae
Test: systemic E2 in AV fistula model with experimentally induced chronic kidney disease
Format: in vivo
Settings: systemic E2 100 ug/day, i.p; animals with experimentally induced CKD
Description: Systemic administration of estradiol, i.e., E2 (Molecular Weight: 272.38 Formula: […] Dissolves in absolute Ethanol) requires weekly therapeutic injections ([Study 1:10 weeks old+OVX (ovariectomy)+1 week+NX (nephrectomy)+4 weeks+AVF+4 weeks (with systemic E2 [100 ug/day, i.p])+4 weeks]) that are not applicable in real-life clinical settings. […] The nanoparticle membrane disclosed herein may locally deliver nanoparticles for the carotid artery ligation model and potentially for the AV Fistula injury site, replacing weekly injections, without the requirement for elevated systemic levels of E2. Nanoparticles may be successfully delivered and retained in layers of carotid artery tissue on a mouse model with significant enhancement.

Q: For `C[C@]12CC[C@@H]3c4ccc(O)cc4CC[C@H]3[C@@H]1CC[C@@H]2O` [estrogen, estradiol], which “effect on neointima formation” value is on record?
A: The value was “inhibits neointima formation”.
